Results from the supplement of paper PMC10307832.

Experiments:
Assay in all cases: relative viability (nuclei count vs DMSO), 5 days (fraction); higher = more cells survive
Motesanib + Dasatinib = compound: CC1(C)CNc2cc(NC(=O)c3cccnc3NCc3ccncc3)ccc21 [Motesanib] + Cc1nc(Nc2ncc(C(=O)Nc3c(C)cccc3Cl)s2)cc(N2CCN(CCO)CC2)n1 [Dasatinib] (partner 0.075 µM)
Summary of the method: (§1)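 Lung cancer cell lines in 1536-well plates were dosed by pin tool the day after seeding, either with one drug alone or with a fixed anchor-drug dose plus five library-drug doses (not always all listed) in √10 steps. After 5 days, cells were fixed and their nuclei stained in one step (final 0.05% Triton X-100, 1% formaldehyde, 1 ug/ml Hoechst), then counted on 4× images. Relative viability is the nuclei count in treated wells divided by that in vehicle wells. Values are medians of duplicate plates.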

[1] = compound: C[C@@]1(C(=O)Nc2ccc(F)nc2)CCCN1c1nc(Nc2cc(C3CC3)n[nH]2)c2cccn2n1 + CC(=O)Nc1cccc(-n2c(=O)n(C3CC3)c(=O)c3c(Nc4ccc(I)cc4F)n(C)c(=O)c(C)c32)c1 [Trametinib] (partner 0.02 µM)
Summary of the method: as §1

[2] = compound: C[C@@]1(C(=O)Nc2ccc(F)nc2)CCCN1c1nc(Nc2cc(C3CC3)n[nH]2)c2cccn2n1 + COc1cc2c(Oc3ccc(NC(=O)C4(C(=O)Nc5ccc(F)cc5)CC4)cc3F)ccnc2cc1OCCCN1CCOCC1 [Foretinib] (partner 0.25 µM)
Summary of the method: as §1

[3] = compound: C[C@@]1(C(=O)Nc2ccc(F)nc2)CCCN1c1nc(Nc2cc(C3CC3)n[nH]2)c2cccn2n1 + CS(=O)(=O)N1CCN(Cc2cc3nc(-c4cccc5[nH]ncc45)nc(N4CCOCC4)c3s2)CC1 [Pictilisib] (partner 1 µM)
Summary of the method: as §1

Cell Line | relative viability (Motesanib + Dasatinib; first compound 0.01 µM) | relative viability (Motesanib + Dasatinib; first compound 0.03162 µM) | relative viability (Motesanib + Dasatinib; first compound 0.1 µM) | relative viability (Motesanib + Dasatinib; first compound 0.3162 µM) | relative viability (Motesanib + Dasatinib; first compound 1 µM) | relative viability ([1]; first compound 0.04 µM) | relative viability ([1]; first compound 0.1265 µM) | relative viability ([1]; first compound 0.4 µM) | relative viability ([1]; first compound 1.265 µM) | relative viability ([2]; first compound 0.04 µM) | relative viability ([2]; first compound 0.1265 µM) | relative viability ([2]; first compound 0.4 µM) | relative viability ([2]; first compound 1.265 µM) | relative viability ([3]; first compound 0.04 µM) | relative viability ([3]; first compound 0.1265 µM) | relative viability ([3]; first compound 0.4 µM) | relative viability ([3]; first compound 1.265 µM)
NCI-H596 | 0.651 | 0.543 | 0.534 | 0.563 | 0.53 | 0.912 | 0.72 | 0.654 | 0.748 | 0.731 | 0.752 | 0.649 | 0.972 | 0.378 | 0.349 | 0.335 | 0.316
NCI-H322M | 0.234 | 0.216 | 0.268 | 0.26 | 0.262 | 0.435 | 0.428 | 0.334 | 0.347 | 0.907 | 0.608 | 0.62 | 0.655 | 0.479 | 0.376 | 0.371 | 0.507
NCI-H2228 | 0.497 | 0.49 | 0.549 | 0.495 | 0.502 | 0.485 | 0.287 | 0.276 | 0.302 | 0.719 | 0.686 | 0.491 | 0.537 | 0.216 | 0.175 | 0.198 | 0.246
NCI-H647 | 0.194 | 0.169 | 0.151 | 0.191 | 0.221 | 0.465 | 0.419 | 0.383 | 0.397 | 1.18 | 1.08 | 0.886 | 1.17 | 0.443 | 0.24 | 0.334 | 0.348
SK-MES-1 | 0.397 | 0.424 | 0.373 | 0.412 | 0.378 | 0.604 | 0.483 | 0.522 | 0.633 | 0.9 | 0.853 | 0.542 | 0.948 | 0.335 | 0.268 | 0.286 | 0.306
NCI-H2170 | 0.533 | 0.507 | 0.463 | 0.511 | 0.57 | 0.951 | 0.966 | 0.894 | 0.992 | 0.932 | 1.02 | 0.973 | 1.08 | 0.243 | 0.212 | 0.188 | 0.243
NCI-H2085 | 0.286 | 0.204 | 0.225 | 0.252 | 0.23 | 0.929 | 0.471 | 0.58 | 0.636 | 0.989 | 0.736 | 0.73 | 0.675 | 0.487 | 0.46 | 0.469 | 0.495
SW 1573 | 0.53 | 0.447 | 0.593 | 0.552 | 0.673 | 0.496 | 0.389 | 0.368 | 0.412 | 0.744 | 0.826 | 0.494 | 0.659 | 0.438 | 0.251 | 0.377 | 0.455
